Measurements: ChEMBL document CHEMBL3779782, “Identification of human telomerase inhibitors having the core of N-acyl-4,5-dihydropyrazole with anticancer effects” (Bioorg Med Chem Lett, 2016)

Legend:
HepG2 = experiment: Antiproliferative activity against human HepG2 cells after 48 hrs by MTT assay; format: functional, cell-based; settings: HepG2, 48 h
[1] = biological target: Telomerase reverse transcriptase (Homo sapiens, UniProt O14746); experiment: Inhibition of telomerase in human MGC803 cells after 24 hrs by TRAP-PCR-ELISA method; format: cell-based, MGC-803
[2] = Antiproliferative activity against human MGC803 cells after 48 hrs by MTT assay; format: functional, cell-based; settings: MGC-803, 48 h
[3] = Antiproliferative activity against human SGC7901 cells after 48 hrs by MTT assay; format: functional, cell-based; settings: SGC-7901, 48 h

Telomerase reverse transcriptase, sequence (O14746 whole entry): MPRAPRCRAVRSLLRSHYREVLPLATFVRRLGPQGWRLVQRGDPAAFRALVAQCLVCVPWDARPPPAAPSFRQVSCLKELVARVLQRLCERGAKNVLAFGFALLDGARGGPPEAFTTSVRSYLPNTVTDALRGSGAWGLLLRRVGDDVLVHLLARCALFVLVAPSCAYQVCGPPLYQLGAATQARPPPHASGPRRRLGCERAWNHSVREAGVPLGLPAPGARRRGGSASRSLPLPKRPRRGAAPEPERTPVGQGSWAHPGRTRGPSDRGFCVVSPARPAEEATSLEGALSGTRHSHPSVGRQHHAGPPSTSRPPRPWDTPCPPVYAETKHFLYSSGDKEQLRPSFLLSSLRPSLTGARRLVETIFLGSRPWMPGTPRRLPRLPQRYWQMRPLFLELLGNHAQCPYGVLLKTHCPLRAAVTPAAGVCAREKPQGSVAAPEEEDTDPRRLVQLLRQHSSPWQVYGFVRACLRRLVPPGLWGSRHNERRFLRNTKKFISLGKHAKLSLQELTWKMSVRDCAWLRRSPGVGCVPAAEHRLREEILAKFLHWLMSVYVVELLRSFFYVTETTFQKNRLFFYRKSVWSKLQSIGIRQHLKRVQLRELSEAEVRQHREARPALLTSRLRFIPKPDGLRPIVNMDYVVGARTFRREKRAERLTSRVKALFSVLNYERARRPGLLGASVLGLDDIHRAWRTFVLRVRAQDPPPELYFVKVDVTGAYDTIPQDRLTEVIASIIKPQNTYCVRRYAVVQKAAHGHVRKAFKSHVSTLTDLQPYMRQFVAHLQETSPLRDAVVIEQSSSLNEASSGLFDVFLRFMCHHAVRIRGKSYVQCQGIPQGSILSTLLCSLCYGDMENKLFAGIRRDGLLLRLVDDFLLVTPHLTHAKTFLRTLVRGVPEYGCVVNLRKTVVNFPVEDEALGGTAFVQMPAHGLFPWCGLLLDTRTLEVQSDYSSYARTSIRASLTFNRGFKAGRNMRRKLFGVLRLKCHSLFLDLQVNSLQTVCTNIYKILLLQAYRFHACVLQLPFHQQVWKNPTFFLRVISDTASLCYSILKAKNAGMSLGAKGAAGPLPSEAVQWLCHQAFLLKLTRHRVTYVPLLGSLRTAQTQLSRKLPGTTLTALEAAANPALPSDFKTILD

COc1ccc(C(=O)N2N=C(C)CC2c2ccccc2O)cc1 (stereo not given)
EC50 (HepG2): 40.3 µM
IC50 [1]: 25 µM
EC50 [2]: 38.5 µM
EC50 [3]: 45.7 µM

CC1=NN(S(=O)(=O)c2ccccc2C)C(c2cc(Br)ccc2O)C1 (stereo not given)
EC50 (HepG2): 39.3 µM
EC50 [2]: > 60 µM
EC50 [3]: 48.1 µM

CC[n+]1c(-c2ccccc2)c2cc(N)ccc2c2ccc(N)cc21 [HOMIDIUM BROMIDE]
IC50 [1]: 2.18 µM

CC1=NN(S(=O)(=O)c2ccc(F)cc2)C(c2cc(Br)ccc2O)C1 (stereo not given)
EC50 (HepG2): 50.1 µM
EC50 [2]: 15.5 µM
EC50 [3]: > 60 µM

CC1=NN(S(=O)(=O)c2ccc(Cl)cc2)C(c2cc(Br)ccc2O)C1 (stereo not given)
EC50 (HepG2): > 60 µM
EC50 [2]: > 60 µM
EC50 [3]: > 60 µM

CC1=NN(C(=O)C(F)(F)F)C(c2ccccc2O)C1 (stereo not given)
EC50 (HepG2): 4.8 µM
IC50 [1]: 1.86 µM
EC50 [2]: 2.89 µM
EC50 [3]: 2.06 µM

CC1=NN(S(=O)(=O)c2ccc(Cl)cc2Cl)C(c2cc(Br)ccc2O)C1 (stereo not given)
EC50 (HepG2): 45.2 µM
EC50 [2]: 37.9 µM
EC50 [3]: > 60 µM

CC1=NN(C(=O)CCl)C(c2cc(Br)ccc2O)C1 (stereo not given)
EC50 (HepG2): 12.3 µM
EC50 [2]: 10.5 µM
EC50 [3]: 9.21 µM

CC1=NN(S(=O)(=O)c2ccc(C(F)(F)F)cc2)C(c2cc(Br)ccc2O)C1 (stereo not given)
EC50 (HepG2): 22.1 µM
IC50 [1]: > 60 µM
EC50 [2]: 30 µM
EC50 [3]: 16.3 µM

CC1=NN(S(=O)(=O)c2ccc([N+](=O)[O-])cc2)C(c2cc(Br)ccc2O)C1 (stereo not given)
EC50 (HepG2): > 60 µM
EC50 [2]: 22.2 µM
EC50 [3]: 27.3 µM

CC1=NN(C(=O)CCl)C(c2cc(F)ccc2O)C1 (stereo not given)
EC50 (HepG2): 4.21 µM
EC50 [2]: 6.87 µM
EC50 [3]: 7 µM

CC1=NN(S(=O)(=O)c2ccccc2)C(c2cc(Br)ccc2O)C1 (stereo not given)
EC50 (HepG2): > 60 µM
EC50 [2]: > 60 µM
EC50 [3]: 55.6 µM

CC1=NN(S(=O)(=O)c2ccccc2I)C(c2cc(Br)ccc2O)C1 (stereo not given)
EC50 (HepG2): > 60 µM
EC50 [2]: 52.5 µM
EC50 [3]: > 60 µM

CC1=NN(C(=O)CCl)C(c2cc(Cl)ccc2O)C1 (stereo not given)
EC50 (HepG2): 20.3 µM
EC50 [2]: 12.2 µM
EC50 [3]: 14 µM

O=c1[nH]cc(F)c(=O)[nH]1 [FLUOROURACIL]
EC50 (HepG2): 2.21 µM
EC50 [2]: 3.35 µM
EC50 [3]: 7.03 µM

CC1=NN(C(=O)c2ccc(F)cc2)C(c2ccccc2O)C1 (stereo not given)
EC50 (HepG2): 39.2 µM
IC50 [1]: 29.8 µM
EC50 [2]: 35.4 µM
EC50 [3]: 50.3 µM

CC1=NN(C(=O)CF)C(c2ccccc2O)C1 (stereo not given)
EC50 (HepG2): 9.41 µM
IC50 [1]: 4 µM
EC50 [2]: 4.26 µM
EC50 [3]: 8.6 µM

CC1=NN(C(=O)CBr)C(c2ccccc2O)C1 (stereo not given)
EC50 (HepG2): 14.4 µM
EC50 [2]: 3.65 µM
EC50 [3]: 4.18 µM

COc1ccc(S(=O)(=O)N2N=C(C)CC2c2cc(Br)ccc2O)cc1 (stereo not given)
EC50 (HepG2): 38.2 µM
EC50 [2]: 20.3 µM
EC50 [3]: 21.1 µM
